Assay results published in ChEMBL document CHEMBL4130396, “Bistinospinosides A and B, Dimeric Clerodane Diterpene Glycosides from Tinospora sagittata” (J Nat Prod, 2017).
Positions of bridges follow the written chain, without caps; N, C: chain ends. Non-standard residues stand in square brackets, D forms with d. Residues, ends and D or L forms follow the SMILES beside them. *: point of attachment. X1 = CC[C@H](C)CCCCC(=O)*; Dab = NCC[C@H](N)C(=O)O

Tested on: J774.1
Assay: Antiinflammatory activity in mouse J774.1 cells assessed as inhibition of LPS/[…]-induced NO production after 48 hrs by Griess assay
Assay type: functional, cell-based
Conditions: J774.1, 48 h

| IC50 [µM] | SMILES |
| --- | --- |
| 8.5 | CC[C@H](C)CCCCC(=O)N[C@@H](CCN)C(=O)N[C@H](C(=O)N[C@@H](CCN)C(=O)N[C@H]1CCNC(=O)[C@H]([C@@H](C)O)NC(=O)[C@H](CCN)NC(=O)[C@H](CCN)NC(=O)[C@H](CC(C)C)NC(=O)[C@@H](Cc2ccccc2)NC(=O)[C@H](CCN)NC1=O)[C@@H](C)O (X1-[Dab]T[Dab][Dab][Dab][dF]L[Dab][Dab]T; lactam 4-C) |
| > 50 | C[C@@]12C[C@@H](C3=C[C@H]4O[C@@H]3[C@H]3[C@@H]4[C@H]4OC(=O)[C@]3(O[C@@H]3O[C@H](CO)[C@@H](O)[C@H](O)[C@H]3O)[C@]3(C)CC[C@H]5C(=O)O[C@H](c6ccoc6)C[C@@]5(C)[C@H]43)OC(=O)[C@@H]1CC[C@]1(C)[C@H]2[C@H]2C=C[C@]1(O[C@@H]1O[C@H](CO)[C@@H](O)[C@H](O)[C@H]1O)C(=O)O2 |
| > 50 | C[C@@]12C[C@@H](C3=C[C@@H]4O[C@H]3[C@H]3[C@H]5OC(=O)[C@@](O[C@@H]6O[C@H](CO)[C@@H](O)[C@H](O)[C@H]6O)([C@H]34)[C@]3(C)CC[C@H]4C(=O)O[C@H](c6ccoc6)C[C@@]4(C)[C@H]53)OC(=O)[C@@H]1CC[C@]1(C)[C@H]2[C@H]2C=C[C@]1(O[C@@H]1O[C@H](CO)[C@@H](O)[C@H](O)[C@H]1O)C(=O)O2 |
